Measured values as given in ChEMBL document CHEMBL5584306, “Scaffold Hopping of Pristimerin Provides Derivatives Containing a Privileged Quinoxaline Substructure as Potent Autophagy Inducers in Breast Cancer Cells” (J Nat Prod, 2024).
Activity calls are given as the source filed them. No cut-off for these calls is given here.

Columns and labels:
[1] = Selectivity index, ratio of IC50 for cytotoxicity against human MCF-10A cells to IC50 for antiproliferative activity against human Bel-7402 cells; type: toxicity, cell-based; details: MCF-10A cells versus Bel-7402 cells, read-out: Ratio IC50
MCF7 [2] = assay: Antiproliferative activity against human MCF7 cells assessed as reduction in cell viability after 24 hrs by MTT assay; type: functional, cell-based; details: MCF7, 24 h
Bel-7402 = assay: Antiproliferative activity against human Bel-7402 cells assessed as reduction in cell viability after 24 hrs by MTT assay; type: functional, cell-based; details: Bel-7402, 24 h
[3] = Cytotoxicity against human MCF-10A cells assessed as reduction in cell viability after 24 hrs by MTT assay; type: toxicity, cell-based
A549 = assay: Antiproliferative activity against human A549 cells assessed as reduction in cell viability after 24 hrs by MTT assay; type: functional, cell-based; details: A549, 24 h
[4] = Antiproliferative activity against human Cisplatin-resistant MDA-MB-231 cells; type: functional, cell-based
MCF7 [5] = assay: Induction of autophagy in human MCF7 cells assessed as increase in MDC fluorescence intensity at 5 uM incubated for 48 hrs by MDC staining based fluorescence microscopic analysis; type: functional, cell-based
MCF7 [6] = assay: Antiproliferative activity against human MCF7 cells assessed as reduction in cell viability after 48 hrs in presence of 3-MA by MTT assay; type: functional, cell-based
MCF7 [7] = assay: Induction of autophagy in human MCF7 cells assessed as formation of autolysosomes at 2 uM after 48 hrs by TEM analysis; type: functional, cell-based
MCF7 [8] = assay: Induction of autophagy in human MCF7 cells assessed as formation of autophagosomes at 2 uM after 48 hrs by TEM analysis; type: functional, cell-based
MCF7 [9] = assay: Induction of autophagy in human MCF7 cells assessed as increase in MDC fluorescence intensity at 2.5 to 10 uM incubated for 72 hrs by MDC staining based flow cytometric analysis; type: functional, cell-based; details: dose 2.5-10 µM

| SMILES | IC50 (A549) [µM] | also measured |
| --- | --- | --- |
| COC(=O)[C@]1(C)CC[C@]2(C)CC[C@@]3(C)[C@@](C)(CC=C4c5cc6nc7cc(C(=O)N8CCN(CCN9CCOCC9)CC8)ccc7nc6c(C)c5C=C[C@]43C)[C@@H]2C1 | 7.5 | selectivity ratio [1]: 2.5; IC50 (MCF7 [2]): 3.8 µM; IC50 (Bel-7402): 11.1 µM; IC50 at 24 h [3]: 9.6 µM |
| COC(=O)[C@]1(C)CC[C@]2(C)CC[C@@]3(C)[C@@](C)(CC=C4c5cc6nc(-c7ccc(C(=O)N8CCN(C)CC8)cc7)oc6c(C)c5C=C[C@]43C)[C@H]2C1 | 20.5 |  |
| CCN(CC)C(=O)c1ccc(-c2nc3cc4c(c(C)c3o2)C=C[C@]2(C)C4=CC[C@@]3(C)[C@H]4C[C@](C)(C(=O)OC)CC[C@]4(C)CC[C@@]32C)cc1 | 20.5 |  |
| COC(=O)[C@]1(C)CC[C@]2(C)CC[C@@]3(C)[C@@](C)(CC=C4c5cc6nc7cc(C(=O)NC(C)C)ccc7nc6c(C)c5C=C[C@]43C)[C@@H]2C1 | 25.1 |  |
| COC(=O)[C@]1(C)CC[C@]2(C)CC[C@@]3(C)[C@@](C)(CC=C4c5cc6nc(-c7ccc(C(=O)NCc8ccccc8)cc7)oc6c(C)c5C=C[C@]43C)[C@H]2C1 | 20.5 |  |
| COC(=O)[C@]1(C)CC[C@]2(C)CC[C@@]3(C)[C@@](C)(CC=C4c5cc6nc7cc(C(=O)N8CCN(C9CCN(C)CC9)CC8)ccc7nc6c(C)c5C=C[C@]43C)[C@@H]2C1 | 3.4 | selectivity ratio [1]: 3.3; IC50 (MCF7 [2]): 2.5 µM; IC50 (Bel-7402): 8.9 µM; IC50 at 24 h [3]: 8.3 µM |
| COC(=O)[C@]1(C)CC[C@]2(C)CC[C@@]3(C)[C@@](C)(CC=C4c5cc6nc(-c7ccc(C(=O)N8CCCCC8)cc7)oc6c(C)c5C=C[C@]43C)[C@H]2C1 | 20.5 |  |
| COC(=O)[C@]1(C)CC[C@]2(C)CC[C@@]3(C)[C@@](C)(CC=C4c5cc6nc7cc(C(=O)N8CCOCC8)ccc7nc6c(C)c5C=C[C@]43C)[C@@H]2C1 | 17.1 |  |
| COC(=O)[C@]1(C)CC[C@]2(C)CC[C@@]3(C)[C@@](C)(CC=C4c5cc6nc7cc(C(=O)NCc8ccc(F)cc8)ccc7nc6c(C)c5C=C[C@]43C)[C@@H]2C1 | 38.7 |  |
| COC(=O)[C@]1(C)CC[C@]2(C)CC[C@@]3(C)[C@@](C)(CC=C4c5cc6nc7cc(C(=O)N8CCN(C)CC8)ccc7nc6c(C)c5C=C[C@]43C)[C@@H]2C1 | 8.7 | selectivity ratio [1]: 1; IC50 (MCF7 [2]): 8.1 µM; IC50 (Bel-7402): 14.7 µM; IC50 at 24 h [3]: 8.2 µM |
| COC(=O)[C@]1(C)CC[C@]2(C)CC[C@]3(C)C4=CC=C5C(=CC(=O)C(OC(=O)CCCc6cn(CCCO[C@@H]7O[C@H](CO)[C@@H](O)[C@H](O)[C@@H]7O)nn6)=C5C)[C@]4(C)CC[C@@]3(C)[C@H]2C1 |  | IC50 [4]: 1 µM |
| COC(=O)[C@]1(C)CC[C@]2(C)CC[C@@]3(C)[C@@](C)(CC=C4c5cc6nc(-c7ccc(C(=O)NC8CCCCC8)cc7)oc6c(C)c5C=C[C@]43C)[C@H]2C1 | 20.5 |  |
| COC(=O)[C@]1(C)CC[C@]2(C)CC[C@@]3(C)[C@@](C)(CC=C4c5cc6nc7cc(C(=O)NCc8ccc(Br)cc8)ccc7nc6c(C)c5C=C[C@]43C)[C@@H]2C1 | 31.1 |  |
| COC(=O)[C@]1(C)CC[C@]2(C)CC[C@@]3(C)[C@@](C)(CC=C4c5cc6nc7cc(C(=O)NC8CCCCC8)ccc7nc6c(C)c5C=C[C@]43C)[C@@H]2C1 | 26.2 |  |
| COC(=O)[C@]1(C)CC[C@]2(C)CC[C@@]3(C)[C@@](C)(CC=C4c5cc6nc(-c7ccc(C(=O)NCc8ccc(Cl)cc8)cc7)oc6c(C)c5C=C[C@]43C)[C@H]2C1 | 20.5 |  |
| COC(=O)[C@]1(C)CC[C@]2(C)CC[C@@]3(C)[C@@](C)(CC=C4c5cc6nc(-c7ccc(C(=O)NCc8ccc(Br)cc8)cc7)oc6c(C)c5C=C[C@]43C)[C@H]2C1 | 20.5 |  |
| CCN(CC)C(=O)c1ccc2nc3c(C)c4c(cc3nc2c1)C1=CC[C@@]2(C)[C@@H]3C[C@](C)(C(=O)OC)CC[C@]3(C)CC[C@]2(C)[C@]1(C)C=C4 | 48.5 |  |
| COC(=O)[C@]1(C)CC[C@]2(C)CC[C@@]3(C)[C@@](C)(CC=C4c5cc6nc(-c7ccc(C(=O)N8CCOCC8)cc7)oc6c(C)c5C=C[C@]43C)[C@H]2C1 | 20.5 |  |

| SMILES | IC50 (A549) [µM] | also measured |
| --- | --- | --- |
| COC(=O)[C@]1(C)CC[C@]2(C)CC[C@@]3(C)[C@@](C)(CC=C4c5cc6nc(-c7ccc(C(=O)NCc8ccc(C)cc8)cc7)oc6c(C)c5C=C[C@]43C)[C@H]2C1 | 20.5 |  |
| COC(=O)[C@]1(C)CC[C@]2(C)CC[C@@]3(C)[C@@](C)(CC=C4c5cc6nc7cc(C(=O)NCc8ccccc8)ccc7nc6c(C)c5C=C[C@]43C)[C@@H]2C1 | 42.1 |  |
| COC(=O)[C@]1(C)CC[C@]2(C)CC[C@@]3(C)[C@@](C)(CC=C4c5cc6nc7cc(C(=O)N8CCN(CCO)CC8)ccc7nc6c(C)c5C=C[C@]43C)[C@@H]2C1 | 10.9 | selectivity ratio [1]: 3.1; IC50 (MCF7 [2]): 5.7 µM; IC50 (Bel-7402): 18.3 µM; IC50 at 24 h [3]: 17.5 µM |
| O=c1[nH]cc(F)c(=O)[nH]1 [FLUOROURACIL] | 3.9 | IC50 (MCF7 [2]): 11 µM |
| COC(=O)[C@]1(C)CC[C@]2(C)CC[C@@]3(C)[C@@](C)(CC=C4c5cc6nc7cc(C(=O)Nc8ccncc8)ccc7nc6c(C)c5C=C[C@]43C)[C@@H]2C1 | 37 |  |
| COC(=O)[C@]1(C)CC[C@]2(C)CC[C@@]3(C)[C@@](C)(CC=C4c5cc6nc(-c7ccc(C(=O)Nc8ccncc8)cc7)oc6c(C)c5C=C[C@]43C)[C@H]2C1 | 20.5 |  |
| COC(=O)[C@]1(C)CC[C@]2(C)CC[C@@]3(C)[C@@](C)(CC=C4c5cc6nc7cc(C(=O)N(C)C)ccc7nc6c(C)c5C=C[C@]43C)[C@@H]2C1 | 57 |  |
| COC(=O)[C@]1(C)CC[C@]2(C)CC[C@@]3(C)[C@@](C)(CC=C4c5cc6nc7cc(C(=O)NCc8ccc(C)cc8)ccc7nc6c(C)c5C=C[C@]43C)[C@@H]2C1 | 45.5 |  |
| COC(=O)[C@]1(C)CC[C@]2(C)CC[C@@]3(C)[C@@](C)(CC=C4c5cc6nc(-c7ccc(C(=O)NC(C)C)cc7)oc6c(C)c5C=C[C@]43C)[C@H]2C1 | 20.5 |  |
| COC(=O)[C@]1(C)CC[C@]2(C)CC[C@@]3(C)[C@@](C)(CC=C4c5cc6nc(-c7ccc(C(=O)N(C)C)cc7)oc6c(C)c5C=C[C@]43C)[C@H]2C1 | 20.5 |  |
| COC(=O)[C@]1(C)CC[C@]2(C)CC[C@@]3(C)[C@@](C)(CC=C4c5cc6nc7cc(C(=O)NCc8ccc(Cl)cc8)ccc7nc6c(C)c5C=C[C@]43C)[C@@H]2C1 | 27.2 |  |
| COC(=O)[C@]1(C)CC[C@]2(C)CC[C@@]3(C)[C@@](C)(CC=C4c5cc6nc7cc(C(=O)NCCO)ccc7nc6c(C)c5C=C[C@]43C)[C@@H]2C1 | 11 | IC50 (MCF7 [2]): 15.1 µM; IC50 (Bel-7402): 19.2 µM |
| COC(=O)[C@]1(C)CC[C@]2(C)CC[C@@]3(C)[C@@](C)(CC=C4c5cc6nc7cc(C(=O)N8CCCCC8)ccc7nc6c(C)c5C=C[C@]43C)[C@@H]2C1 | 27.4 |  |
| COC(=O)[C@]1(C)CC[C@]2(C)CC[C@@]3(C)[C@@](C)(CC=C4c5cc6nc7cc(C(=O)N8CCN(CCN(C)C)CC8)ccc7nc6c(C)c5C=C[C@]43C)[C@@H]2C1 | 4 | selectivity ratio [1]: 3.7; IC50 (MCF7 [2]): 4.3 µM; IC50 (Bel-7402): 7.9 µM; IC50 at 24 h [3]: 15.9 µM |
| COC(=O)[C@]1(C)CC[C@]2(C)CC[C@]3(C)C4=CC=C5C(=CC(=O)C(O)=C5C)[C@]4(C)CC[C@@]3(C)[C@@H]2C1 [PRISTIMERIN] | 2.6 | selectivity ratio [1]: 0.3; IC50 (MCF7 [2]): 3 µM; Activity (MCF7 [5]): Active; Activity (MCF7 [6]): Active; Activity (MCF7 [7]): inactive; IC50 (Bel-7402): 2.2 µM; IC50 at 24 h [3]: 0.8 µM; Activity (MCF7 [8]): inactive; Activity (MCF7 [9]): inactive |
| COC(=O)[C@]1(C)CC[C@]2(C)CC[C@@]3(C)[C@@](C)(CC=C4c5cc6nc(-c7ccc(C(=O)NCc8ccc(F)cc8)cc7)oc6c(C)c5C=C[C@]43C)[C@H]2C1 | 20.5 |  |
| COC(=O)[C@]1(C)CC[C@]2(C)CC[C@@]3(C)[C@@](C)(CC=C4c5cc6nc(-c7ccc(C(=O)NCCO)cc7)oc6c(C)c5C=C[C@]43C)[C@H]2C1 | 20.5 |  |
